≈ marks a conversion by molar mass, not a printed value.
Legend:
[1] = tested on: Mycobacterium tuberculosis; assay: Antitubercular activity against Mycobacterium tuberculosis H37Ra; format: functional
Plasmodium falciparum = assay: Antimalarial activity against Plasmodium falciparum NF54; format: functional; details: NF-54

Question: What does the source list for Oc1ccc(-c2cc(-c3ccccc3)nc(NCCCN3CCOCC3)n2)cc1?
Answer: MIC [1]: 12.5 mg/L (≈ 32 µM); MIC (Plasmodium falciparum): 2 mg/L (≈ 5.12 µM)

Question: How did the MIC (Plasmodium falciparum) turn out when Oc1ccc(-c2cc(-c3ccccc3)nc(N3CCOCC3)n2)cc1 was run?
Answer: Its MIC is 2 mg/L (≈ 6 µM).

Question: How did the MIC [1] turn out when COc1ccc(OC)c(-c2cc(-c3ccc(O)cc3)nc(NCCCn3ccnc3)n2)c1 was run?
Answer: Its MIC is 12.5 mg/L (≈ 29 µM).

Question: What about the MIC (Plasmodium falciparum) of the same compound?
Answer: Its MIC is 0.25 mg/L (≈ 0.579 µM).

Question: Which MIC [1] does the source give for CCN(CC)CCCC(C)Nc1nc(-c2ccc(O)cc2)cc(-c2ccc(OC)cc2)n1 (configuration not stated) here?
Answer: Its MIC is 12.5 mg/L (≈ 28.8 µM).

Question: What about the MIC (Plasmodium falciparum) of the same compound?
Answer: The MIC was 10 mg/L (≈ 23 µM).

Question: What does the source list for COc1ccc(OC)c(-c2cc(-c3ccc(O)cc3)nc(NCCCN3CCOCC3)n2)c1?
Answer: MIC [1]: 25 mg/L (≈ 55.5 µM); MIC (Plasmodium falciparum): 0.5 mg/L (≈ 1.11 µM)

Question: For COc1ccc(-c2cc(-c3ccc(O)cc3)nc(N3CCOCC3)n2)cc1OC, which MIC (Plasmodium falciparum) is on record?
Answer: The MIC was 0.5 mg/L (≈ 1.27 µM).

Question: CCN(CC)CCCC(C)Nc1nc(-c2ccc(C)cc2)cc(-c2ccc(O)cc2)n1 (configuration not stated) was tested. Which MIC (Plasmodium falciparum) did it give?
Answer: Its MIC is 50 mg/L (≈ 119 µM).

Question: What does the source list for COc1ccc(-c2cc(-c3ccc(O)cc3)nc(NCCCn3ccnc3)n2)cc1OC?
Answer: MIC [1]: 12.5 mg/L (≈ 29 µM); MIC (Plasmodium falciparum): 0.25 mg/L (≈ 0.579 µM)

Question: For COc1ccc(OC)c(-c2cc(-c3ccc(O)cc3)nc(N3CCOCC3)n2)c1, which MIC (Plasmodium falciparum) is on record?
Answer: Its MIC is 0.5 mg/L (≈ 1.27 µM).

Question: What does the source list for Oc1ccc(-c2cc(-c3ccccc3)nc(NCCCn3ccnc3)n2)cc1?
Answer: MIC [1]: 25 mg/L (≈ 67.3 µM); MIC (Plasmodium falciparum): 0.5 mg/L (≈ 1.35 µM)

Question: Cc1ccc(-c2cc(-c3ccc(O)cc3)nc(N3CCOCC3)n2)cc1 was tested. Which MIC (Plasmodium falciparum) did it give?
Answer: Its MIC is 2 mg/L (≈ 5.76 µM).

Question: With COc1ccc(-c2cc(-c3ccc(O)cc3)nc(NCCCN3CCOCC3)n2)cc1OC as the compound, how does the MIC [1] read?
Answer: Its MIC is 25 mg/L (≈ 55.5 µM).

Question: And the MIC (Plasmodium falciparum)?
Answer: Its MIC is 0.5 mg/L (≈ 1.11 µM).

Question: What does the source list for CCN(CC)CCCC(C)Nc1nc(-c2ccc(O)cc2)cc(-c2cc(OC)ccc2OC)n1 (configuration not stated)?
Answer: MIC [1]: 12.5 mg/L (≈ 26.9 µM); MIC (Plasmodium falciparum): 10 mg/L (≈ 21.5 µM)

Question: Which MIC (Plasmodium falciparum) does the source give for Cc1ccc(-c2cc(-c3ccc(O)cc3)nc(NCCCN3CCOCC3)n2)cc1 here?
Answer: Its MIC is 2 mg/L (≈ 4.94 µM).

Question: With Cc1ccc(-c2cc(-c3ccc(O)cc3)nc(NCCCn3ccnc3)n2)cc1 as the compound, how does the MIC (Plasmodium falciparum) read?
Answer: Its MIC is 2 mg/L (≈ 5.19 µM).

Question: COc1ccc(-c2cc(-c3ccc(O)cc3)nc(N3CCOCC3)n2)cc1 was tested. Which MIC (Plasmodium falciparum) did it give?
Answer: Its MIC is 1 mg/L (≈ 2.75 µM).

Question: Which MIC [1] does the source give for COc1ccc(-c2cc(-c3ccc(O)cc3)nc(NCCCn3ccnc3)n2)cc1 here?
Answer: The MIC was 12.5 mg/L (≈ 31.1 µM).

Question: What about the MIC (Plasmodium falciparum) of the same compound?
Answer: The MIC was 1 mg/L (≈ 2.49 µM).

Question: For COc1ccc(-c2cc(-c3ccc(O)cc3)nc(NCCCN3CCOCC3)n2)cc1, which MIC [1] is on record?
Answer: The MIC was 12.5 mg/L (≈ 29.7 µM).

Question: What about the MIC (Plasmodium falciparum) of the same compound?
Answer: Its MIC is 1 mg/L (≈ 2.38 µM).

Question: How did the MIC [1] turn out when CCN(CC)CCCC(C)Nc1nc(-c2ccccc2)cc(-c2ccc(O)cc2)n1 (configuration not stated) was run?
Answer: The MIC was 25 mg/L (≈ 61.8 µM).

Question: And the MIC (Plasmodium falciparum)?
Answer: The MIC was 10 mg/L (≈ 24.7 µM).

Question: Which results are given for CCN(CC)CCCC(C)Nc1nc(-c2ccc(O)cc2)cc(-c2ccc(OC)c(OC)c2)n1 (configuration not stated)?
Answer: MIC [1]: 12.5 mg/L (≈ 26.9 µM); MIC (Plasmodium falciparum): 2 mg/L (≈ 4.3 µM)

From ChEMBL document CHEMBL1141867, “A small library of trisubstituted pyrimidines as antimalarial and antitubercular agents” (2005)
